test: gradient 5% acetonitrile 3 min, to 50% in 2 min, to 85% in 15 min, held 3 min, 100 µL/min; conditions: column: Zorbax Extend-C18 2.1 x 50 mm; eluents: water / acetonitrile, 0.1% formic acid
How it was run: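 In both positive and negative ionization mode, a quadrupole time-of-flight mass spectrometer coupled to HPLC analyzed pure standards run in mixtures of ~100 molecules. The Zorbax Extend-C18 column (2.1 × 50 mm, 1.8 μm) was operated at 100 μL/min with water and acetonitrile, each containing 0.1% formic acid. The dead volume was 40 μL and the dwell volume 900 μL. Retention time came from adduct peaks that were computationally picked and individually inspected by hand.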

Row | RP-LC retention time [s] | Compound
1 | 974 | CCCCN(CCCC)C(=O)CN1C[C@H](c2ccc3c(c2)OCO3)[C@@H](C(=O)O)[C@@H]1c1ccc(OC)cc1
2 | 591 | COc1ccccc1CNCc1ccc2c(c1)n(C)c(=O)n2C
3 | 880 | Cc1cc2c(F)c(Oc3ncnn4cc(OC[C@@H](C)O)c(C)c34)ccc2[nH]1
4 | 950 | CC(C)c1ccc(C(=O)Nc2ccc3c(c2)Sc2ncccc2C(=O)N3C)cc1
5 | 667 | CCc1ccc(CCN2C(=O)c3ccccc3C2=O)nc1
6 | 1130 | CCCCCn1c(=O)c2ccccc2n(Cc2nc(-c3cccc(OC)c3)no2)c1=O
7 | 783 | COc1cccc(Cn2nc3ccc(S(=O)(=O)N4CCOCC4)cn3c2=O)c1
8 | 874 | CCn1nccc1-c1cccc(-c2noc(CNC(=O)c3ccccc3)n2)c1
9 | 572 | CN(C)CC1CN(C(=O)c2cc(F)ccc2F)CC12CCOCC2 (stereo not given)
10 | 618 | COCCc1noc(COC2CCN(C(=O)C3CCCO3)CC2)n1 (stereo not given)
11 | 646 | Cc1ccc2[nH]c(=O)c(CCC(=O)N(C)Cc3cn(C)nc3C)cc2c1
12 | 984 | CCOc1ccc(-c2noc(CN3N=NC4C(=O)N(c5cccc(SC)c5)C(=O)C43)n2)cc1OC (stereo not given)
13 | 807 | O=c1c(NC2CCCCCC2)nc2ccncc2n1Cc1ccccc1
14 | 801 | COc1cccc(CNC(=O)CCc2nc3c(C)cccc3c(=O)n2C)c1
15 | 860 | COc1cccc(CNC(=O)N2CCCC(C)(C(=O)NCc3ccccc3C)C2)c1 (stereo not given)
16 | 759 | CC1CCCN(C(=O)Cc2nnc3cc(-c4nc(C5CC5)no4)ccn23)C1 (stereo not given)
17 | 654 | CC(C)N1CCN(C(=O)C2=NN(c3ccc(Cl)cc3)c3ncccc3S2(=O)=O)CC1
18 | 1420 | CCn1nccc1-c1cccc(-c2noc(-c3ccc(C)c(C)c3)n2)c1
19 | 663 | COCCN1C(=O)c2cccn2CC1CNC(=O)Nc1ccc2c(c1)OCCO2 (stereo not given)
20 | 598 | COc1cccc(CNC(=O)Cn2ncc3c(N4CCN(c5ccccn5)CC4)ncnc32)c1
21 | 640 | Cc1ccc(NC(=O)c2ccc(CN3CCN(C)CC3)cc2)cc1Nc1nccc(-c2cccnc2)n1
22 | 567 | Cc1cc(C)c2c(N3CCSCC3)nc(C(=O)NCc3ccccn3)nc2n1

Row | RP-LC retention time [s] | Compound
23 | 633 | CCc1ccccc1NC(=O)Cn1c(N)nc(CC)c(C)c1=O
24 | 1100 | Cc1ccc(C)c(N2CCN(C(=O)Cn3nc(C(=O)N4CCCCC4)c4ccccc43)CC2)c1
25 | 1160 | O=C1C2N=NN(Cc3nc(-c4ccc(Cl)cc4)no3)C2C(=O)N1c1ccc2c(c1)CCC2 (stereo not given)
26 | 626 | Cc1ccc(-n2c(=O)c3c(cc(C)n3C)n(CC(=O)Nc3c(C)cc(C)cc3C)c2=O)cc1
27 | 780 | Nc1cc(C2CCN(S(=O)(=O)c3ccc(F)cc3F)CC2)no1
28 | 931 | Fc1ccc(-c2nnc(Cc3nc(Cc4ccccc4)no3)o2)cc1
29 | 727 | COCC(=O)N(C1CCOCC1)C1CCN(S(=O)(=O)c2ccccc2)CC1
30 | 659 | CC1CC(C)CN(CCCNC(=O)Cn2ncc3c4ccccc4n(C)c3c2=O)C1 (stereo not given)
31 | 637 | CCn1c(C(=O)NCCN2CCCCC2C)c(N2CCCC2=O)c2cc(OC)ccc21 (stereo not given)
32 | 557 | CN1CCN(CCCNC(=O)c2nccnc2NC(=O)c2ccccc2)CC1
33 | 701 | Cn1nc(C2CCCN(C(=O)c3ccco3)C2)n(C2CCCC2)c1=O (stereo not given)
34 | 849 | O=C(c1cccc2[nH]ccc12)N1CCC2(CC1)N=C(c1cccc(Br)c1)NO2
35 | 757 | COc1ccccc1CNC(=O)c1cn(-c2cc(N3CCOCC3)ncn2)cn1
36 | 877 | COc1cc(NS(=O)(=O)c2cc(-c3nc(C)cs3)n(CC(=O)N3CCCC3)c2)cc(OC)c1
37 | 1250 | Cc1ccc(-c2nc(NC(=O)Cc3csc(-c4ccccc4)n3)sc2C)cc1
38 | 782 | CCOC(=O)c1cnc2c(OC)cccc2c1NCC1COc2ccccc2O1 (stereo not given)
39 | 728 | O=S(=O)(c1ccc2nc(N3CCN(Cc4ccc5c(c4)OCO5)CC3)cnc2c1)N1CCCCC1
40 | 720 | Cc1ccc(NC(=O)c2cn3c(n2)CCCC3)c(F)c1
41 | 592 | CNC(=O)N1Cc2ccccc2OC2(CCN(C(C)C)CC2)C1
42 | 590 | CCCn1c(=O)c2cc(C(=O)N3CCN(Cc4ccccc4)CC3)nn2c2ccccc21
43 | 866 | Cc1cccc(-n2c(=O)c3c(cc(C)n3C)n(CC(=O)Nc3ccc(C)c(F)c3)c2=O)c1
44 | 1200 | CCOc1ccc(-c2nc(-c3ccc4c(c3)N(CC)C(=O)CO4)no2)cc1OCC

Row | RP-LC retention time [s] | Compound
45 | 634 | COc1ccc(N2CC(NC(=O)c3ccc(S(=O)(=O)N(C)C)cc3)CC2=O)cc1OC (stereo not given)
46 | 604 | O=C(NC1CCN(Cc2ccccc2)CC1)C1CCCN(c2ncnc3c2oc2ccccc23)C1 (stereo not given)
47 | 669 | Cc1noc(C)c1Cc1ccc(C(=O)NCC2Cn3cccc3C(=O)N2C)o1 (stereo not given)
48 | 1340 | c1ccc(-c2nc3cnc(N4CCN(c5ccccc5)CC4)nc3o2)cc1
49 | 1030 | O=C(Cn1cccc1-c1nc(-c2ccc3c(c2)OCO3)no1)NC1CCCCC1
50 | 763 | Cc1cccc(NC(=O)C2CCCN2S(=O)(=O)c2cc3c(cc2C)NC(=O)CO3)c1 (stereo not given)
51 | 812 | Cc1c(C(=O)N(C)C)cc(-c2ccccc2)n1C
52 | 650 | CCNc1cc(N2CCC(CCC(=O)NCc3ccccc3OC)CC2)ncn1
53 | 570 | CCCNc1cc(N2CCC(CCC(=O)N(C)CCc3ccccn3)CC2)ncn1
54 | 795 | O=C(Cn1cccc1-c1nc(-c2ccc(Cl)cc2)cs1)NCc1ccccn1
55 | 936 | COc1ccc(-c2cc3c(=O)n(Cc4nc(-c5ccccc5)oc4C)ccn3n2)cc1
56 | 1000 | Cc1cc(C)cc(NS(=O)(=O)c2ccc3c(c2)C(=O)N(C)c2ncccc2O3)c1
57 | 1050 | COc1ccc(C(=O)N2CCc3nc(-c4ccc(Cl)cc4)ncc3C2)cc1F
58 | 830 | O=C(NC1CCCCC1)N1CCC(c2noc(COCC3CC3)n2)CC1
59 | 804 | O=C(c1ccc(Br)o1)N1c2ccccc2CC1c1nnc(C2CCOCC2)o1 (stereo not given)
60 | 1210 | COc1cccc(CCC(=O)Nc2ccc3c(c2)Sc2ncccc2C(=O)N3C)c1
61 | 810 | COc1ccc(-c2ncc3c(n2)CCN(C(=O)Nc2cccc(C(C)=O)c2)C3)cc1
62 | 1020 | CCCC(=O)N1CCN(c2nc3ccccc3nc2C(F)(F)F)CC1
63 | 757 | O=C(C1CCC(=O)N1S(=O)(=O)c1ccccc1)N1CCCCC1 (stereo not given)
64 | 816 | CCc1ccc(NC(=O)N2CCC(n3c(-c4ccco4)nc4cccnc43)C2)cc1 (stereo not given)
65 | 997 | CCn1cc(C(=O)NCc2ccc(SC)cc2)c(=O)c2ccc(C)nc21

From the METLIN SMRT retention time set (Domingo-Almenara et al. 2019)
